Where two headings read alike, the source gives them in different places.

The target in one experiment is hNav1.7 (Homo sapiens, UniProt Q15858). In words: cell-based. Conditions: Table 11; for IC50: PatchXpress, tonic, read-out: PX hNav1.7 Tonic IC50. Format: cell-based.
Another experiment deals with hNav1.4 (Homo sapiens, UniProt P35499). In words: cell-based. Format: cell-based. Conditions: for IC50: PatchXpress, read-out: PX hNav1.4 Tonic IC50; for Nav1.4/Nav1.7: ratio of PX tonic IC50 values.
Sequence of hNav1.4 (P35499 whole entry): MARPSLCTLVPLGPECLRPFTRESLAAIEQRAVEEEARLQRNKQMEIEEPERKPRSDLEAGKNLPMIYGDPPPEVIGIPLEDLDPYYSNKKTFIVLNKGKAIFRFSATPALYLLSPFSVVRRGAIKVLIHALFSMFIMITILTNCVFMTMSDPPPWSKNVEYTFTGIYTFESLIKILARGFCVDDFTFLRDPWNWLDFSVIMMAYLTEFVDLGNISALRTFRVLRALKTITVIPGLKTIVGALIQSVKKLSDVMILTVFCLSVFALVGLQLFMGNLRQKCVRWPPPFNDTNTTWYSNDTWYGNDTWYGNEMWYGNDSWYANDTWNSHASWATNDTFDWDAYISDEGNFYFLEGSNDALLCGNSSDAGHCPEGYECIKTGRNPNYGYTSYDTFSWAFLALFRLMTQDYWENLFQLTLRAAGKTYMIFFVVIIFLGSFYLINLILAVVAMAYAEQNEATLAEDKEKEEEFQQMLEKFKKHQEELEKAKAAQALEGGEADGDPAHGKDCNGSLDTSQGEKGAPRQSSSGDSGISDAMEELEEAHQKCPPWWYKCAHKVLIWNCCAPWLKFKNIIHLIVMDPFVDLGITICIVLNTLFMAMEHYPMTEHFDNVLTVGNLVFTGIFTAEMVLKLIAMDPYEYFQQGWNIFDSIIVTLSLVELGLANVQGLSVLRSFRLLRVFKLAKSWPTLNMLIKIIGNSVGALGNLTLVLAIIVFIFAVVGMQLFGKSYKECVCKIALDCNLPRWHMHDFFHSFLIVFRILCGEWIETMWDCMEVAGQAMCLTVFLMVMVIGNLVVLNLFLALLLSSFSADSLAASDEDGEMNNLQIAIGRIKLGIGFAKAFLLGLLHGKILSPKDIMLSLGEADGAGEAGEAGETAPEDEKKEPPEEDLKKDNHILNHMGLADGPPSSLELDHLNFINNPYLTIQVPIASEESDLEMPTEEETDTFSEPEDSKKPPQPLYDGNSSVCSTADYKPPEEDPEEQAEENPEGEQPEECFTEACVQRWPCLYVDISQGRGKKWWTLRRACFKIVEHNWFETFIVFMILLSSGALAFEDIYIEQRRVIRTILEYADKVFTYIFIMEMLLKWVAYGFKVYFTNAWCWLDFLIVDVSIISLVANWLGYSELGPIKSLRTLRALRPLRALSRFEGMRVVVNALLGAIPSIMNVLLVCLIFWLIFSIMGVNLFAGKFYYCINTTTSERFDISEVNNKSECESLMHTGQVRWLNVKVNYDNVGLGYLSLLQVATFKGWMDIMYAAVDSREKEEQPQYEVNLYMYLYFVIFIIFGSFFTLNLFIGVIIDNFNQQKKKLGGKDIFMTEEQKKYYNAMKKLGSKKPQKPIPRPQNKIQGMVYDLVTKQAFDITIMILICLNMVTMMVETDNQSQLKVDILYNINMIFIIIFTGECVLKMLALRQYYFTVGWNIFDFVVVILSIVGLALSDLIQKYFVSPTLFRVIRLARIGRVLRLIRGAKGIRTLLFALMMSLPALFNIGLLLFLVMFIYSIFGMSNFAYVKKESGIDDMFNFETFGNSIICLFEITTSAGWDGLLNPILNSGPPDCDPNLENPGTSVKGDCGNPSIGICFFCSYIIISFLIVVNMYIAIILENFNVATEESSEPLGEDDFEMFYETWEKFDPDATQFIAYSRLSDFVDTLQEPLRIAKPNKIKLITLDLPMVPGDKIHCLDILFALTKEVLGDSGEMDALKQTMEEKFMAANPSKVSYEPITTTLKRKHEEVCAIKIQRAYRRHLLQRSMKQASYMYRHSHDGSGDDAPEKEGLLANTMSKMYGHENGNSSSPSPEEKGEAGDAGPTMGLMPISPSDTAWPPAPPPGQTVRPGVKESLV

Sequence of hNav1.7 (Q15858 whole entry): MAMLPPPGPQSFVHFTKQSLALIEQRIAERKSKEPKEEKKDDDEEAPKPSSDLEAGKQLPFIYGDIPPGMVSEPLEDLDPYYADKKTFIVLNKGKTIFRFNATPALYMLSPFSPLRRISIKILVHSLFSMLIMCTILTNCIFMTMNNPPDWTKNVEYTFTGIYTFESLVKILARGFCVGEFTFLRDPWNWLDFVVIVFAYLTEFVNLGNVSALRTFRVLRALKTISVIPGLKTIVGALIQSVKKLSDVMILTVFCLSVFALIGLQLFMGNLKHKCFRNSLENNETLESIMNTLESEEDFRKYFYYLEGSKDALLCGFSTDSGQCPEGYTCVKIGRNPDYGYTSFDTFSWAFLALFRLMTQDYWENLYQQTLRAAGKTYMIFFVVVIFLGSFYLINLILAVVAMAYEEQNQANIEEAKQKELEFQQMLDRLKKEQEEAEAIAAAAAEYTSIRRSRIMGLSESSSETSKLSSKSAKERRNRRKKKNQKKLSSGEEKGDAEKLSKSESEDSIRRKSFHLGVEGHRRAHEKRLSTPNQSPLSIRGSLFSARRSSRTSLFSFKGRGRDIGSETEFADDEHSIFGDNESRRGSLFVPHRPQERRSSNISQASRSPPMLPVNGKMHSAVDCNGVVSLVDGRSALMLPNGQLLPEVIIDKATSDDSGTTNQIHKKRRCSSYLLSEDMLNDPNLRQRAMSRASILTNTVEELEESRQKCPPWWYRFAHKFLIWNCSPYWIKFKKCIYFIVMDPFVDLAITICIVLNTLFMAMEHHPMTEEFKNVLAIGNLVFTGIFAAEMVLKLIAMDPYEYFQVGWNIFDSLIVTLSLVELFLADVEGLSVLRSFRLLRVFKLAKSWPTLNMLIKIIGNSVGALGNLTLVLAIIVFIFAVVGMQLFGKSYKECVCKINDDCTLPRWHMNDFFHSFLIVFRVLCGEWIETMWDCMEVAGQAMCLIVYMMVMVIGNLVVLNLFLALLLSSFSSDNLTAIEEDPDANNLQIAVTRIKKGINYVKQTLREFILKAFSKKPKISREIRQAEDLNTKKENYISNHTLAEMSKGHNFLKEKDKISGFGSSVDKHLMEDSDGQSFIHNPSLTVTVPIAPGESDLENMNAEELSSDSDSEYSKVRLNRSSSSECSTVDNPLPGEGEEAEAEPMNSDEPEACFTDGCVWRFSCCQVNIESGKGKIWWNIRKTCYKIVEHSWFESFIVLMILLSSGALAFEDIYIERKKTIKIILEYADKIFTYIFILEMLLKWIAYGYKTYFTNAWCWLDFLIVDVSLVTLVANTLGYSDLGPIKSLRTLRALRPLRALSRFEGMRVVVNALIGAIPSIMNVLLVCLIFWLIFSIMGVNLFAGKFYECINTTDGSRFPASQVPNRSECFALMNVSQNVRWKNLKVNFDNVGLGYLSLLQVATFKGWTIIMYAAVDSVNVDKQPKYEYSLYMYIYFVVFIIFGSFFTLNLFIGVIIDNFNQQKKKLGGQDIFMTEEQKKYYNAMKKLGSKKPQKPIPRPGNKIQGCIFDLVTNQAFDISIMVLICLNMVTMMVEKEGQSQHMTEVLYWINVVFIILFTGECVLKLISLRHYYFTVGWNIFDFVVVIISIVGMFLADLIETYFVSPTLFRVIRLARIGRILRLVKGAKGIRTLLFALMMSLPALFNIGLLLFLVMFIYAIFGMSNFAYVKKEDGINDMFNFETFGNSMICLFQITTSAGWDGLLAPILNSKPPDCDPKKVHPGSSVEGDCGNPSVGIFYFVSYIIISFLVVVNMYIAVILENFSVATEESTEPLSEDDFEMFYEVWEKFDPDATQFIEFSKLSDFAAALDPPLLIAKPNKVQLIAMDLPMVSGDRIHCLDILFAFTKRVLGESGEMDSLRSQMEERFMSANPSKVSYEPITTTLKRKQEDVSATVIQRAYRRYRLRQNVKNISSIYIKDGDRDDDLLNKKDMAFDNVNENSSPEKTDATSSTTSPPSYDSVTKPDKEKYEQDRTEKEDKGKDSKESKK

Usually IC50 stands for the concentration that gives 50% inhibition. For the compound `CC[C@H](C)[C@H](NC(=O)[C@@H](NC(=O)[C@H](CCCCN)NC(=O)[C@H](CCCNC(=N)N)NC(=O)[C@@H]1CSSC[C@@H]2NC(=O)[C@H](C)NC(=O)[C@H](CCCNC(=N)N)NC(=O)[C@H](CCCCN)NC(=O)[C@H](CO)NC(=O)[C@H](CC(=O)O)NC(=O)[C@@H]3CSSC[C@H](NC(=O)[C@H](CCCNC(=N)N)NC(=O)[C@H](CC(C)C)NC(=O)CNC(=O)[C@H](CCC(=O)O)NC(=O)[C@H](CSSC[C@H](NC(=O)[C@@H](N)Cc4ccc(O)cc4)C(=O)N[C@@H](CCC(=O)O)C(=O)N[C@@H](CCCCN)C(=O)N[C@@H](Cc4c[nH]c5ccccc45)C(=O)N[C@@H](CCSC)C(=O)N[C@@H](Cc4c[nH]c5ccccc45)C(=O)N[C@@H]([C@@H](C)O)C(=O)N3)NC2=O)C(=O)N[C@@H](CCCCN)C(=O)N[C@@H](CC(C)C)C(=O)N[C@@H](Cc2c[nH]c3ccccc23)C(=O)N1)[C@@H](C)CC)C(N)=O` [compound 50], the IC50 at hNav1.7 was 58.7 nM; on hNav1.4 (tonic, Table 11), 453 nM. For the same compound, the Nav1.4/Nav1.7 on hNav1.7 (ratio of PX tonic IC50 values) was determined as 8.
Take `CC[C@H](C)[C@H](NC(=O)[C@@H](NC(=O)[C@H](CCCCN)NC(=O)[C@H](CCCNC(=N)N)NC(=O)[C@@H]1CSSC[C@@H]2NC(=O)[C@H](C)NC(=O)[C@H](CCCNC(=N)N)NC(=O)[C@H](CCCCN)NC(=O)[C@H](CO)NC(=O)[C@H](CC(=O)O)NC(=O)[C@@H]3CSSC[C@H](NC(=O)[C@H](CCCNC(=N)N)NC(=O)[C@H](CC(C)C)NC(=O)CNC(=O)[C@H](CCC(=O)O)NC(=O)[C@H](CSSC[C@H](NC(=O)[C@@H](N)Cc4ccc(O)cc4)C(=O)N[C@@H](CCC(N)=O)C(=O)N[C@@H](CCCCN)C(=O)N[C@@H](CCC(=O)O)C(=O)N[C@@H](CCSC)C(=O)N[C@@H](Cc4c[nH]c5ccccc45)C(=O)N[C@@H]([C@@H](C)O)C(=O)N3)NC2=O)C(=O)N[C@@H](CCCCN)C(=O)N[C@@H](CC(C)C)C(=O)N[C@@H](Cc2c[nH]c3ccccc23)C(=O)N1)[C@@H](C)CC)C(N)=O` [compound 52]: the IC50 was greater than 1000 nM at hNav1.7 and 3.1 nM at hNav1.4 (tonic, Table 11).
Regarding `C#CC[C@@H]1NC(=O)[C@@H]2CSSC[C@H](NC(=O)[C@H](Cc3ccc(O)cc3)NC(=O)[C@@H](N)CC#N)C(=O)N[C@@H](CCC(N)=O)C(=O)N[C@@H](CCCCN)C(=O)N[C@@H](Cc3c[nH]c4ccccc34)C(=O)N[C@@H](CCCC)C(=O)N[C@@H](Cc3c[nH]c4ccccc34)C(=O)N[C@@H]([C@@H](C)O)C(=O)N[C@H]3CSSC[C@H](NC(=O)[C@H](CCC(=O)O)NC(=O)[C@H](CC(C)C)NC(=O)CNC1=O)C(=O)N[C@@H](CCCCN)C(=O)N[C@@H](CC(C)C)C(=O)N[C@@H](Cc1c[nH]c4ccccc14)C(=O)N[C@H](C(=O)N[C@@H](CCCNC(=N)N)C(=O)N[C@@H](CCCCN)C(=O)N[C@@H](Cc1ccc(O)cc1)C(=O)N[C@H](C(N)=O)[C@@H](C)CC)CSSC[C@H](NC(=O)[C@H](C)NC(=O)[C@H](CCCNC(=N)N)NC(=O)[C@H](CCCCN)NC(=O)[C@H](CO)NC(=O)[C@H](CC(=O)O)NC3=O)C(=O)N2` [compound 397], the Nav1.4/Nav1.7 on hNav1.4 (Table 12) is given as 20.
Regarding `CCCC[C@@H]1NC(=O)[C@H](Cc2c[nH]c3ccccc23)NC(=O)[C@H](CCCCN)NC(=O)[C@H](CCC(N)=O)NC(=O)[C@@H](NC(=O)[C@@H](N)Cc2ccc(O)cc2)CSSC[C@@H]2NC(=O)[C@@H]3CSSC[C@@H](C(=O)N[C@@H](CCCNC(=N)N)C(=O)N[C@@H](CCCCN)C(=O)N[C@@H](CCC(=O)O)C(=O)N[C@H](C(N)=O)[C@@H](C)CC)NC(=O)[C@H](Cc4c[nH]c5ccccc45)NC(=O)[C@H](CC(C)C)NC(=O)[C@H](CCCCN)NC(=O)[C@H](CSSC[C@H](NC(=O)[C@H]([C@@H](C)O)NC(=O)[C@H](Cc4c[nH]c5ccccc45)NC1=O)C(=O)N[C@@H](CC(=O)O)C(=O)N[C@@H](CO)C(=O)N[C@@H](CCCCN)C(=O)N[C@@H](CCCNC(=N)N)C(=O)N[C@@H](C)C(=O)N3)NC(=O)[C@H](CCCNC(=N)N)NC(=O)[C@H](CC(C)C)NC(=O)CNC(=O)[C@H](Cc1cn(CCCOCCOCCOCCOCCOCCOCCOCCOCCOCCOCCN)nn1)NC2=O` [compound 406], the Nav1.4/Nav1.7 at hNav1.4 (Table 13) is reported as 11.
For the compound `CCCC[C@@H]1NC(=O)[C@H](Cc2c[nH]c3ccccc23)NC(=O)[C@H](CCCCN)NC(=O)[C@H](CCC(N)=O)NC(=O)[C@@H](NC(=O)[C@@H](N)Cc2cn(CCCOCCOCCOCCOCCOCCOCCOCCOCCOCCOCCN)nn2)CSSC[C@@H]2NC(=O)[C@@H]3CSSC[C@@H](C(=O)N[C@@H](CCCNC(=N)N)C(=O)N[C@@H](CCCCN)C(=O)N[C@H](C(=O)N[C@H](C(N)=O)[C@@H](C)CC)[C@@H](C)CC)NC(=O)[C@H](Cc4c[nH]c5ccccc45)NC(=O)[C@H](CC(C)C)NC(=O)[C@H](CCCCN)NC(=O)[C@H](CSSC[C@H](NC(=O)[C@H]([C@@H](C)O)NC(=O)[C@H](Cc4c[nH]c5ccccc45)NC1=O)C(=O)N[C@@H](CC(=O)O)C(=O)N[C@@H](CO)C(=O)N[C@@H](CCCCN)C(=O)N[C@@H](CCCNC(=N)N)C(=O)N[C@@H](C)C(=O)N3)NC(=O)[C@H](CCC(=O)O)NC(=O)[C@H](CC(C)C)NC(=O)CNC(=O)[C@H](CCC(=O)O)NC2=O` [compound 407], on hNav1.4 (Table 13), the Nav1.4/Nav1.7 was found to be 85.
Take `C#CC[C@H](N)C(=O)NCCOCCOCCOCCOCCC(=O)NCCCC[C@@H]1NC(=O)[C@H](CCCNC(=N)N)NC(=O)[C@H](CCCCN)NC(=O)[C@H](CO)NC(=O)[C@H](CC(=O)O)NC(=O)[C@@H]2CSSC[C@@H]3NC(=O)[C@H](CCCNC(=N)N)NC(=O)[C@H](CC(C)C)NC(=O)CNC(=O)[C@H](CCC(=O)O)NC(=O)[C@H](CSSC[C@H](NC(=O)[C@H](Cc4ccc(O)cc4)NC(=O)[C@@H](N)CCC)C(=O)N[C@@H](CCC(N)=O)C(=O)N[C@@H](CCCCN)C(=O)N[C@@H](Cc4c[nH]c5ccccc45)C(=O)N[C@@H](CCCC)C(=O)N[C@@H](Cc4c[nH]c5ccccc45)C(=O)N[C@@H]([C@@H](C)O)C(=O)N2)NC(=O)[C@H](CSSC[C@@H](C(=O)N[C@@H](CCCNC(=N)N)C(=O)N[C@@H](CCCCN)C(=O)N[C@H](C(=O)N[C@H](C(N)=O)[C@@H](C)CC)[C@@H](C)CC)NC(=O)[C@H](Cc2c[nH]c4ccccc24)NC(=O)[C@H](CC(C)C)NC(=O)[C@H](CCCCN)NC3=O)NC1=O` [compound 432]: at hNav1.4 (Table 12), the Nav1.4/Nav1.7 amounted to 12.
Regarding `C#CC[C@H](N)C(=O)NCCCC[C@@H]1NC(=O)[C@H](CCCNC(=N)N)NC(=O)[C@H](CCCCN)NC(=O)[C@H](CO)NC(=O)[C@H](CC(=O)O)NC(=O)[C@@H]2CSSC[C@@H]3NC(=O)[C@H](CCCNC(=N)N)NC(=O)[C@H](CC(C)C)NC(=O)CNC(=O)[C@H](CCC(=O)O)NC(=O)[C@H](CSSC[C@H](NC(=O)[C@H](Cc4ccc(O)cc4)NC(=O)[C@@H](N)CCC)C(=O)N[C@@H](CCC(N)=O)C(=O)N[C@@H](CCCCN)C(=O)N[C@@H](Cc4c[nH]c5ccccc45)C(=O)N[C@@H](CCCC)C(=O)N[C@@H](Cc4c[nH]c5ccccc45)C(=O)N[C@@H]([C@@H](C)O)C(=O)N2)NC(=O)[C@H](CSSC[C@@H](C(=O)N[C@@H](CCCNC(=N)N)C(=O)N[C@@H](CCCCN)C(=O)N[C@@H](CCC(=O)O)C(=O)N[C@H](C(N)=O)[C@@H](C)CC)NC(=O)[C@H](Cc2c[nH]c4ccccc24)NC(=O)[C@H](CC(C)C)NC(=O)[C@H](CCCCN)NC3=O)NC1=O` [compound 435], at hNav1.4 (Table 12), the Nav1.4/Nav1.7 is listed as 99.
For `C#CC[C@H](N)C(=O)NCCCC[C@@H]1NC(=O)[C@H](CCCNC(=N)N)NC(=O)[C@H](CCCCN)NC(=O)[C@H](CO)NC(=O)[C@H](CC(=O)O)NC(=O)[C@@H]2CSSC[C@@H]3NC(=O)[C@H](CCCNC(=N)N)NC(=O)[C@H](CC(C)C)NC(=O)CNC(=O)[C@H](CCC(=O)O)NC(=O)[C@H](CSSC[C@H](NC(=O)[C@H](Cc4ccc(O)cc4)NC(=O)[C@@H](N)CCC)C(=O)N[C@@H](CCC(N)=O)C(=O)N[C@@H](CCCCN)C(=O)N[C@@H](Cc4c[nH]c5ccccc45)C(=O)N[C@@H](CC(C)C)C(=O)N[C@@H](Cc4c[nH]c5ccccc45)C(=O)N[C@@H]([C@@H](C)O)C(=O)N2)NC(=O)[C@H](CSSC[C@@H](C(=O)N[C@@H](CCCNC(=N)N)C(=O)N[C@@H](CCCCN)C(=O)N[C@H](C(=O)N[C@H](C(N)=O)[C@@H](C)CC)[C@@H](C)CC)NC(=O)[C@H](Cc2c[nH]c4ccccc24)NC(=O)[C@H](CC(C)C)NC(=O)[C@H](CCCCN)NC3=O)NC1=O` [compound 438], the Nav1.4/Nav1.7 at hNav1.4 (Table 12) is recorded as 7.
In the case of `C#CC[C@H](N)C(=O)NCCCC[C@@H]1NC(=O)[C@H](CCCNC(=N)N)NC(=O)[C@H](CCCCN)NC(=O)[C@H](CO)NC(=O)[C@H](CC(=O)O)NC(=O)[C@@H]2CSSC[C@@H]3NC(=O)[C@H](CCCNC(=N)N)NC(=O)[C@H](CC(C)C)NC(=O)CNC(=O)[C@H](CCC(=O)O)NC(=O)[C@H](CSSC[C@H](NC(=O)[C@H](Cc4ccc(O)cc4)NC(=O)[C@@H](N)CCC)C(=O)N[C@@H](CCC(N)=O)C(=O)N[C@@H](CCCCN)C(=O)N[C@@H](Cc4c[nH]c5ccccc45)C(=O)N[C@@H](CC(C)C)C(=O)N[C@@H](Cc4c[nH]c5ccccc45)C(=O)N[C@@H]([C@@H](C)O)C(=O)N2)NC(=O)[C@H](CSSC[C@@H](C(=O)N[C@@H](CCCNC(=N)N)C(=O)N[C@@H](CCCCN)C(=O)N[C@@H](CCC(=O)O)C(=O)N[C@H](C(N)=O)[C@@H](C)CC)NC(=O)[C@H](Cc2c[nH]c4ccccc24)NC(=O)[C@H](CC(C)C)NC(=O)[C@H](CCCCN)NC3=O)NC1=O` [compound 439], at hNav1.4 (Table 12, tonic block), the IC50 came to 300 nM.
As for `CCCC[C@@H]1NC(=O)[C@H](Cc2c[nH]c3ccccc23)NC(=O)[C@H](CCCCN)NC(=O)[C@H](CCC(N)=O)NC(=O)[C@@H](NC(=O)[C@H](Cc2ccc(O)cc2)NC(=O)[C@@H](N)Cc2cn(CCOCCOCCOCCOCCOCCOCCOCCOCCOCCOCCN)nn2)CSSC[C@@H]2NC(=O)[C@@H]3CSSC[C@@H](C(=O)N[C@@H](CCCNC(=N)N)C(=O)N[C@@H](CCCCN)C(=O)N[C@@H](CCC(=O)O)C(=O)N[C@H](C(N)=O)[C@@H](C)CC)NC(=O)[C@H](Cc4c[nH]c5ccccc45)NC(=O)[C@H](CC(C)C)NC(=O)[C@H](CCCCN)NC(=O)[C@H](CSSC[C@H](NC(=O)[C@H]([C@@H](C)O)NC(=O)[C@H](Cc4c[nH]c5ccccc45)NC1=O)C(=O)N[C@@H](CC(=O)O)C(=O)N[C@@H](CO)C(=O)N[C@@H](CCCCN)C(=O)N[C@@H](CCCNC(=N)N)C(=O)N[C@@H](C)C(=O)N3)NC(=O)[C@H](CCCNC(=N)N)NC(=O)[C@H](CC(C)C)NC(=O)CNC(=O)[C@H](CCC(=O)O)NC2=O` [compound 883], on hNav1.4 (Table 13), the Nav1.4/Nav1.7 is reported as 120.

The values are drawn from patent US10344060B2 (priority 2013, dated 2019).
